# Laboratory results taken from patent US12441725B2, “ISO-citrate dehydrogenase (IDH) inhibitor” (ZHEJIANG METON PHARMACEUTICAL CO., LTD, priority 2019, dated 2025).
# Key:
# IDH1 R132H = target: T1, IDH1 R132H (Homo sapiens, UniProt O75874, R132H); assay: Biochemical assay for IDH inhibition (NADPH fluorescence), mutant IDH1 R132H; settings: 50 nM IDH1-R132H, 1 hour pre-incubation, in triplet
# T1 construct: 6xHis
# How it was run: (§1)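 The read-out was the linear-phase loss of NADPH fluorescence (340/460 nm) over 15 min, background-subtracted and normalized to DMSO wells, giving triplicate IC50 values. Beforehand, R132H (50 nM) or R132C (25 nM) was exposed to compound for 1 h at room temperature with 1.33 mM α-KG at pH 7.5, and the reaction was triggered by adding an 80 μM NADPH solution.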
# IDH1 R132C = target: T2, IDH1 R132C (Homo sapiens, UniProt O75874, R132C); assay: Biochemical assay for IDH inhibition (NADPH fluorescence), mutant IDH1 R132C; settings: 25 nM IDH1-R132C, 1 hour pre-incubation, in triplet
# T2 construct: 6xHis
# T2 sequence (O75874 whole entry R132C): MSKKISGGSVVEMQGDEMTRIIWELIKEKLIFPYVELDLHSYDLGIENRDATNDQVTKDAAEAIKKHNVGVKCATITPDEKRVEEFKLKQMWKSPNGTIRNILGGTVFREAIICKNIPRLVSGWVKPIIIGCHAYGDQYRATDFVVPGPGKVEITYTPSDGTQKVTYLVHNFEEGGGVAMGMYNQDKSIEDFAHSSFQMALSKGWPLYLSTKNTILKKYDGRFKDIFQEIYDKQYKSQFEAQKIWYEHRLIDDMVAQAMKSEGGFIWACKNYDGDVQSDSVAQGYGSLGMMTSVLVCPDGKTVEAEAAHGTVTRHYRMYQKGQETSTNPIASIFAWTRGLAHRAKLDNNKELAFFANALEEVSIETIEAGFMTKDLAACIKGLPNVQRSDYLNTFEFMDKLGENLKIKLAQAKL
# How it was run: as §1
# [1] = target: T3, IDH (endogenous IDH1 R132C) in HT1080 cell (Homo sapiens, UniProt O75874, R132C); assay: Cell-based assay for IDH inhibition (decrease of D-2-HG) in HT1080 cells; settings: human fibrosarcoma cell line HT1080, 16 hours treatment, D-2-HG by LC-MS, in triplet
# T3 construct: which harbor endogenous heterozygous IDH1 R132C and R132H mutation respectively and accumulate D-2-HG
# T3 sequence (O75874 2-414 R132C): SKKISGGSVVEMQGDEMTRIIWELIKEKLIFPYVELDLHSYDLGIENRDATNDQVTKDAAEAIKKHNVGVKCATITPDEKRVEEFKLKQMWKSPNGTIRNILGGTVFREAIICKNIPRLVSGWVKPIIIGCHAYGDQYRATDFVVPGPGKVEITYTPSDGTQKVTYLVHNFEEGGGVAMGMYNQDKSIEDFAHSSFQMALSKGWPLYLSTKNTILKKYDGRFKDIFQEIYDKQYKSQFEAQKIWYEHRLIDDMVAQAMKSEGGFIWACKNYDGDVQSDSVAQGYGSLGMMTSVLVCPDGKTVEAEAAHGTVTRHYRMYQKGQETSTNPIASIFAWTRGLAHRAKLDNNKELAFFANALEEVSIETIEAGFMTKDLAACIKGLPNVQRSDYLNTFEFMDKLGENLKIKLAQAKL
# How it was run: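 LC-MS/MS quantification of D-2-HG, normalized to glutamate, follows a 16 h compound exposure of IDH1 R132C HT1080 cells in DMEM with 10% FBS. Extraction uses pre-chilled 40% methanol/40% acetonitrile in water. Triplicate determinations; IC50 from D-2-HG levels relative to DMSO-treated cells.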
# T1 sequence (O75874 whole entry R132H): as the sequence (O75874 whole entry R132C) above, with C132H counted along it
Structure (SMILES),IC50 (IDH1 R132H) [nM],IC50 (IDH1 R132C) [nM],IC50 [1] [nM]
"CCN1Cc2c(ccnc2N[C@@H](C)c2cc(F)c(-c3cc(C(C)(C)F)c(F)cn3)cc2F)C1=O [Compound 137, (S)-4-((1-(2,5-difluoro-4-(5-fluoro-4-(2-fluoropropan-2-yl)pyridin-2-yl)phenyl)ethyl)amino)-2-ethyl-2,3-dihydro-1H-pyrrolo[3,4-c]pyridin-1-one]",< 100,< 100,< 100
"CCN1Cc2c(ccnc2N[C@@H](C)c2cc(F)c(-c3cc(C(C)(C)C)ncc3O)cc2F)C1=O [Compound 138, (S)-4-((1-(4-(2-(tert-butyl)-5-hydroxypyridin-4-yl)-2,5-difluorophenyl)ethyl)amino)-2-ethyl-2,3-dihydro-1H-pyrrolo[3,4-c]pyridin-1-one]",< 100,< 100,< 100
"CCN1Cc2c(ccnc2N[C@@H](C)c2cc(F)c(-c3cc(C(C)(C)F)ncc3CF)cc2F)C1=O [Compound 139, (S)-4-((1-(2,5-difluoro-4-(5-(fluoromethyl)-2-(2-fluoropropan-2-yl)pyridin-4-yl)phenyl)ethyl)amino)-2-ethyl-2,3-dihydro-1H-pyrrolo[3,4-c]pyridin-1-one]",< 100,100 to 500,< 100
"CCN1Cc2c(ccnc2N[C@@H](C)c2cc(F)c(-c3cc(C(C)(C)F)nc(OC)n3)cc2F)C1=O [Compound 141, (S)-4-((1-(2,5-difluoro-4-(6-(2-fluoropropan-2-yl)-2-methoxypyrimidin-4-yl)phenyl)ethyl)amino)-2-ethyl-2,3-dihydro-1H-pyrrolo[3,4-c]pyridin-1-one]",< 100,< 100,< 100
"CCN1Cc2c(ccnc2N[C@@H](C)c2cc(F)c(-c3cc(C(F)(F)F)cc(OC)n3)cc2F)C1=O [Compound 142, (S)-4-((1-(2,5-difluoro-4-(6-methoxy-4-(trifluoromethyl)pyridin-2-yl)phenyl)ethyl)amino)-2-ethyl-2,3-dihydro-1H-pyrrolo[3,4-c]pyridin-1-one]",< 100,100 to 500,100 to 500
"CCN1Cc2c(ccnc2N[C@@H](C)c2cc(F)c(-c3cc(C(F)(F)F)ncc3OC)cc2F)C1=O [Compound 143, (S)-4-((1-(2,5-difluoro-4-(5-methoxy-2-(trifluoromethyl)pyridin-4-yl)phenyl)ethyl)amino)-2-ethyl-2,3-dihydro-1H-pyrrolo[3,4-c]pyridin-1-one]",< 100,100 to 500,100 to 500
"CCN1Cc2c(ccnc2N[C@@H](C)c2cc(F)c(-c3cc(C(F)(F)F)ncc3O)cc2F)C1=O [Compound 144, (S)-4-((1-(2,5-difluoro-4-(5-hydroxy-2-(trifluoromethyl)pyridin-4-yl)phenyl)ethyl)amino)-2-ethyl-2,3-dihydro-1H-pyrrolo[3,4-c]pyridin-1-one]",> 1000,> 1000,> 1000
"CCN1Cc2c(ccnc2N[C@@H](C)c2cc(F)c(-c3cc(C(F)(F)F)ncc3OCOC)cc2F)C1=O [Compound 145, (S)-4-((1-(2,5-difluoro-4-(5-(methoxymethoxy)-2-(trifluoromethyl)pyridin-4-yl)phenyl)ethyl)amino)-2-ethyl-2,3-dihydro-1H-pyrrolo[3,4-c]pyridin-1-one]",< 100,< 100,100 to 500
"CCN1Cc2c(ccnc2N[C@@H](C)c2cc(F)c(-c3cc4c(cn3)COC4(C)C)cc2F)C1=O [Compound 146, (S)-4-((1-(4-(1,1-dimethyl-1,3-dihydrofuro[3,4-c]pyridin-6-yl)-2,5-difluorophenyl)ethyl)amino)-2-ethyl-2,3-dihydro-1H-pyrrolo[3,4-c]pyridin-1-one]",< 100,< 100,< 100
"CCN1Cc2c(ccnc2N[C@@H](C)c2cc(F)c(-c3cc(C(C)(C)F)c(COC)cn3)cc2F)C1=O [Compound 147, (S)-4-((1-(2,5-difluoro-4-(4-(2-fluoropropan-2-yl)-5-(methoxymethyl)pyridin-2-yl)phenyl)ethyl)amino)-2-ethyl-2,3-dihydro-1H-pyrrolo[3,4-c]pyridin-1-one]",< 100,< 100,< 100
"CCN1Cc2c(ccnc2N[C@@H](C)c2cc(F)c(-c3cc(C(C)(C)F)c(C(F)(F)F)cn3)cc2F)C1=O [Compound 148, (S)-4-((1-(2,5-difluoro-4-(4-(2-fluoropropan-2-yl)-5-(trifluoromethyl)pyridin-2-yl)phenyl)ethyl)amino)-2-ethyl-2,3-dihydro-1H-pyrrolo[3,4-c]pyridin-1-one]",< 100,< 100,< 100
"CCN1Cc2c(ccnc2N[C@@H](C)c2cc(F)c(-c3ccc(OC)c(C(C)(C)C)n3)cc2F)C1=O [Compound 149, (S)-4-((1-(4-(6-(tert-butyl)-5-methoxypyridin-2-yl)-2,5-difluorophenyl)ethyl)amino)-2-ethyl-2,3-dihydro-1H-pyrrolo[3,4-c]pyridin-1-one]",< 100,100 to 500,100 to 500
"CCN1Cc2c(ccnc2N[C@@H](C)c2cc(F)c(-c3cc(C(C)(C)C)c(OC)cn3)cc2F)C1=O [Compound 150, (S)-4-((1-(4-(4-(tert-butyl)-5-methoxypyridin-2-yl)-2,5-difluorophenyl)ethyl)amino)-2-ethyl-2,3-dihydro-1H-pyrrolo[3,4-c]pyridin-1-one]",< 100,< 100,< 100
"CCN1Cc2c(ccnc2N[C@@H](C)c2cc(F)c(-c3cc(OC(C)(C)C)ncc3C)cc2F)C1=O [Compound 151, (S)-4-((1-(4-(2-(tert-butoxy)-5-methylpyridin-4-yl)-2,5-difluorophenyl)ethyl)amino)-2-ethyl-2,3-dihydro-1H-pyrrolo[3,4-c]pyridin-1-one]",< 100,100 to 500,< 100
"CCN1Cc2c(ccnc2N[C@@H](C)c2cc(F)c(-c3cc(OC(C)(C)C)c(Cl)cn3)cc2F)C1=O [Compound 152, (S)-4-((1-(4-(4-(tert-butoxy)-5-chloropyridin-2-yl)-2,5-difluorophenyl)ethyl)amino)-2-ethyl-2,3-dihydro-1H-pyrrolo[3,4-c]pyridin-1-one]",< 100,< 100,< 100
"CCN1Cc2c(ccnc2N[C@@H](C)c2cc(F)c(-c3cc(C(C)(C)F)c(OC)nn3)cc2F)C1=O [Compound 153, (S)-4-((1-(2,5-difluoro-4-(5-(2-fluoropropan-2-yl)-6-methoxypyridazin-3-yl)phenyl)ethyl)amino)-2-ethyl-2,3-dihydro-1H-pyrrolo[3,4-c]pyridin-1-one]",< 100,< 100,< 100
"CCN1Cc2c(ccnc2N[C@@H](C)c2cc(F)c(-c3ccnc(C(C)(C)C#N)c3)cc2F)C1=O [Compound 154, (S)-2-(4-(4-(1-((2-ethyl-1-oxo-2,3-dihydro-1H-pyrrolo[3,4-c]pyridin-4-yl)amino)ethyl)-2,5-difluorophenyl)pyridin-2-yl)-2-methylpropanenitrile]",100 to 500,500 to 1000,100 to 500
"CCN1Cc2c(ccnc2N[C@@H](C)c2cc(F)c(-c3cc(C(F)(F)F)cc(F)n3)cc2F)C1=O [Compound 155, (S)-4-((1-(2,5-difluoro-4-(6-fluoro-4-(trifluoromethyl)pyridin-2-yl)phenyl)ethyl)amino)-2-ethyl-2,3-dihydro-1H-pyrrolo[3,4-c]pyridin-1-one]",< 100,100 to 500,100 to 500
"CCN1Cc2c(ccnc2N[C@@H](C)c2cc(F)c(-c3cc(C(C)(C)F)cc(O)n3)cc2F)C1=O [Compound 156, (S)-4-((1-(2,5-difluoro-4-(4-(2-fluoropropan-2-yl)-6-hydroxypyridin-2-yl)phenyl)ethyl)amino)-2-ethyl-2,3-dihydro-1H-pyrrolo[3,4-c]pyridin-1-one]",100 to 500,500 to 1000,100 to 500
"CCN1Cc2c(ccnc2N[C@@H](C)c2cc(F)c(-c3cc(C(F)(F)F)cc(O)n3)cc2F)C1=O [Compound 157, (S)-4-((1-(2,5-difluoro-4-(6-hydroxy-4-(trifluoromethyl)pyridin-2-yl)phenyl)ethyl)amino)-2-ethyl-2,3-dihydro-1H-pyrrolo[3,4-c]pyridin-1-one]",100 to 500,> 1000,> 1000
"COCCN1Cc2c(ccnc2N[C@@H](C)c2cc(F)c(-c3ccnc(C(C)(C)C)c3)cc2F)C1=O [Compound 158, (S)-4-((1-(4-(2-(tert-butyl)pyridin-4-yl)-2,5-difluorophenyl)ethyl)amino)-2-(2-methoxyethyl)-2,3-dihydro-1H-pyrrolo[3,4-c]pyridin-1-one]",100 to 500,> 1000,> 1000
"C[C@H](Nc1nccc2c1CN(CCO)C2=O)c1cc(F)c(-c2ccnc(C(C)(C)C)c2)cc1F [Compound 159, (S)-4-((1-(4-(2-(tert-butyl)pyridin-4-yl)-2,5-difluorophenyl)ethyl)amino)-2-(2-hydroxyethyl)-2,3-dihydro-1H-pyrrolo[3,4-c]pyridin-1-one]",100 to 500,100 to 500,100 to 500
